Measured values published in publication PMC6804443 (Acta Pharmaceutica Sinica. B, 2019).
Read-outs that look alike come from different tables or passages of the source.

Legend:
[1] = cited from earlier work; for fu-p (unbound fraction in plasma): human plasma; for Cmax / VSS / t1/2: XueBiJing 100 mL via 75-min intravenous infusion
[2] = tested on: P450 enzymes, UGTs, SULTs, OATP1B1/1B3, OAT1/3, OCT2, MATE1/2-K, MDR1, BCRP; conditions: cited from earlier work
[3] = XueBiJing compounds, cited from earlier work; for LogD(7.4): pH 7.4
[4] = XueBiJing compounds; cited from earlier work
UGT2B15 = molecular target: T1, UGT2B15 (Homo sapiens, UniProt P54855); type: in vitro ADME; conditions: for Inhibition DDI index, UGT2B15: antibiotic as perpetrator, senkyunolide I (X5) as victim, (Cmax × fu-p × R)/IC50
T1 sequence (P54855 24-530): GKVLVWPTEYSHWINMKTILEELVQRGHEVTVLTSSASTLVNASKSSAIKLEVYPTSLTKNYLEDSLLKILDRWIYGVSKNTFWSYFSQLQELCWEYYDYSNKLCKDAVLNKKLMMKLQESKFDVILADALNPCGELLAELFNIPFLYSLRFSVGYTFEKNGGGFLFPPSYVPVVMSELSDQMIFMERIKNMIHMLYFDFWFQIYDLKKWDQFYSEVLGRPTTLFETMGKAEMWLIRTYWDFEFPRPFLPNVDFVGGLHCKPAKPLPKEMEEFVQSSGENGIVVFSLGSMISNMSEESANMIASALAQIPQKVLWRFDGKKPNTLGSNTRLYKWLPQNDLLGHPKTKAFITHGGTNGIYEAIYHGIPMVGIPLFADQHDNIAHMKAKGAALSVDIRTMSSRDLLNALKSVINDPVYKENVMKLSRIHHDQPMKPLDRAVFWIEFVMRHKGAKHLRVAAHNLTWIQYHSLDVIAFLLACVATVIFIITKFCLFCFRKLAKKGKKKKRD

OATP1B3 [5] = molecular target: T2, OATP1B3 (Homo sapiens, UniProt Q9NPD5); conditions: IC50, OATP1B3 [X10], mean ± SD (n = 3)
T2 sequence (Q9NPD5 1-702): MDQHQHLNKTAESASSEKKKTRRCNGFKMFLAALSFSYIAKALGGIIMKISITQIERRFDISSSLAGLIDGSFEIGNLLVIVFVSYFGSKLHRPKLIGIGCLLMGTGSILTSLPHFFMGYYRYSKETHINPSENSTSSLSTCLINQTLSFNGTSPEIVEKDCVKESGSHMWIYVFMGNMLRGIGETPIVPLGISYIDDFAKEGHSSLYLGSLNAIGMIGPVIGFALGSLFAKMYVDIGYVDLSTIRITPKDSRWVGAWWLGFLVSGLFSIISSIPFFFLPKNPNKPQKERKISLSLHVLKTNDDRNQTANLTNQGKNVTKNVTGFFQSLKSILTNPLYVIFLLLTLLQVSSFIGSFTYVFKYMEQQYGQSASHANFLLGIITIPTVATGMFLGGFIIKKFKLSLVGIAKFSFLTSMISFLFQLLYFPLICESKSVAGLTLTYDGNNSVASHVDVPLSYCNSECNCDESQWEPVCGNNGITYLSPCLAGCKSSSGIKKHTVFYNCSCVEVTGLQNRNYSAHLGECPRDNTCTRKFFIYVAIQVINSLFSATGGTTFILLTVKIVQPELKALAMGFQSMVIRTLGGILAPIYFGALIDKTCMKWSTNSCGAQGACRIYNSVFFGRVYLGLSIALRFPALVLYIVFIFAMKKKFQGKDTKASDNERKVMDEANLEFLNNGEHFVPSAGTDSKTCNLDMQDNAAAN

OATP1B3 [6] = molecular target: T2, OATP1B3; conditions: for Inhibition DDI index, OATP1B3: antibiotic as perpetrator, salvianolic acid B (X10) as victim, (Cmax × fu-p × R)/IC50
OATP1B3 [7] = molecular target: T2, OATP1B3; test: in vitro
OAT1 [8] = molecular target: T3, OAT1 (Homo sapiens, UniProt Q4U2R8); test: OAT1 inhibition by antibiotics, transfected HEK293 cells, tanshinol as substrate; conditions: for Inhibition DDI index, OAT1: antibiotic as perpetrator, tanshinol (X8) as victim, (Cmax × fu-p × R)/IC50
T3 sequence (Q4U2R8 1-563): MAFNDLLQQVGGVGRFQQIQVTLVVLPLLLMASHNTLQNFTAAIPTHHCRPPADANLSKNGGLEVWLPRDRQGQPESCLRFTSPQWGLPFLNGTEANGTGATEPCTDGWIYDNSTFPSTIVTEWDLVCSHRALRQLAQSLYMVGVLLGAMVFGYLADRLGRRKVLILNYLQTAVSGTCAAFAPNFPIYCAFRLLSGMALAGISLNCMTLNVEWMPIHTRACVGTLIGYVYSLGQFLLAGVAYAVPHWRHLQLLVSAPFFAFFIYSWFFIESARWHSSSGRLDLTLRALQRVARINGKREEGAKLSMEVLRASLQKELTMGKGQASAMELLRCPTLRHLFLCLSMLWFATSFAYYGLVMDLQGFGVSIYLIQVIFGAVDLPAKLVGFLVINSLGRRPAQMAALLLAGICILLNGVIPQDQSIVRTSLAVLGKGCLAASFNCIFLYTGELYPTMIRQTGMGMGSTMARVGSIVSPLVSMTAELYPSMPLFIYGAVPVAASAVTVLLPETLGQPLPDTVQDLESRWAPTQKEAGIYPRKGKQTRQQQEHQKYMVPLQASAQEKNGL

ALDH = type: in vitro ADME; conditions: human, pooled human liver cytosol
OAT1 [9] = molecular target: T3, OAT1; test: OAT1 inhibition by XueBiJing compounds, transfected HEK293 cells [PAH]; type: in vitro ADME
OAT2 [10] = molecular target: T4, OAT2 (Homo sapiens, UniProt Q9Y694); type: in vitro ADME
T4 sequence (Q9Y694 1-546 isoform Q9Y694-2): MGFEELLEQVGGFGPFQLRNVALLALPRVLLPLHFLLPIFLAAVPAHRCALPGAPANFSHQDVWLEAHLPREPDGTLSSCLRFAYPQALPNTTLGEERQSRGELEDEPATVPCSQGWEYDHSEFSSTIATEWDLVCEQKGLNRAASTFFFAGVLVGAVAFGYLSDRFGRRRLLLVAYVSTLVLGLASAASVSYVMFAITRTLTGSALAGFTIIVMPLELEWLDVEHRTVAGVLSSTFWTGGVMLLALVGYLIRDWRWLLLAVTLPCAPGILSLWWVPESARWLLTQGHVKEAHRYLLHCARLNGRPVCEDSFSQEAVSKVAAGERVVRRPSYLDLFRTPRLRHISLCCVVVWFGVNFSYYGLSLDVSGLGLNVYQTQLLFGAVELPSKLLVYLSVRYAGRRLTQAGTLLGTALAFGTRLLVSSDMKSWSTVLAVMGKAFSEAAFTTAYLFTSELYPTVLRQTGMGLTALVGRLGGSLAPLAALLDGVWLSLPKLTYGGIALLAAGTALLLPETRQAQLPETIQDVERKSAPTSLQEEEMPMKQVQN

CYP2B6 = CYP2B6 induction by XueBiJing compounds in cryopreserved human hepatocytes; type: in vitro ADME; conditions: higher concentrations; range over the named compounds and enzymes
CYP3A4 = conditions: higher concentrations; range over the named compounds and enzymes
OAT2 [11] = molecular target: T4, OAT2; test: OAT2 inhibition by antibiotics, transfected HEK293 cells, tanshinol as substrate; type: in vitro ADME; conditions: for inhibition at 1000 µM: HEK293, read-out: Inhibition of OAT2

Compound | IC50 (UGT2B15) | IC50 (OATP1B3 [5]) | Inhibition DDI index, OATP1B3 (OATP1B3 [6]) | IC50 (OAT1 [8]) | inhibition at 1000 μmol/L (UGT2B15; human, cDNA-expressed UGT2B15) | IC50 (ALDH) | inhibition at 1000 μmol/L (ALDH) | inhibition at 1000 μmol/L (OATP1B3 [7]) | Inhibition DDI index, OAT1 (OAT1 [8]) | inhibition at 1000 μmol/L (OAT1 [8]; human) | other results
C[C@]12C[C@@H](O)[C@@H]3C[C@@]1(O[C@@H]1O[C@H](CO)[C@@H](O)[C@H](O)[C@H]1O)[C@@]3(COC(=O)c1ccccc1)C(=O)O2 [X4, albiflorin] | – | – | – | – | – | – | – | – | – | – | fu-p (unbound fraction in plasma) [1]: 83%; Cmax ([1]; human): 800 nM; VSS ([1]; human): 0.08 L/kg; t1/2 ([1]; human): 0.7 h; Major elimination route ([1]; human): Renal excretion, GF-based; fe-U (fraction of dose excreted unchanged into urine) ([1]; human): 62%; Related metabolism and transport data (substrate status) [2]: Not the substrate of P450 enzymes, UGTs, SULTs, OATP1B1/1B3, OAT1/3, OCT2, MATE1/2-K, MDR1, or BCRP; pKa [3]: 12.8; LogD(7.4) [3]: −0.9; Membrane permeability [4]: Poor
CC[C@H](C)C[C@H](C)CCCCCCCCC(=O)N[C@H]1C[C@@H](O)[C@@H](NCCN)NC(=O)[C@@H]2[C@@H](O)CCN2C(=O)[C@H]([C@H](O)CCN)NC(=O)[C@H]([C@H](O)[C@@H](O)c2ccc(O)cc2)NC(=O)[C@@H]2C[C@@H](O)CN2C(=O)[C@H]([C@@H](C)O)NC1=O [A41, caspofungin] | 39 ± 2 µM | 1 µM | 0.35 | 7 ± 2 µM | – | – | – | – | – | – | inhibition at 100 μmol/L (UGT2B15; human, cDNA-expressed UGT2B15): 60 to 88%; inhibition at 100 μmol/L (OATP1B3 [7]): > 90%; inhibition at 100 μmol/L (OAT1 [8]; human): 63 to 88%
CO[C@@]1(NC(=O)Cc2cccs2)C(=O)N2C(C(=O)O)=C(COC(N)=O)CS[C@@H]21 [A20, cefoxitin] | 57 ± 11 µM | 26 ± 19 µM | 2.81 | – | ≥ 90% | 983 ± 117 µM | 56 to 88% | > 90% | – | – | Inhibition DDI index, UGT2B15 (UGT2B15): 1.28
CCCCC1(O)OC(=O)C2=C1CCC=C2 (stereo not shown) [X7, senkyunolide G] | – | – | – | – | – | – | – | – | – | – | Inhibition of OAT1 (OAT1 [9]; 100 μmol/L): > 50%; IC50 (OAT1 [9]; read-out: IC50, OAT1 [PAH], mean ± SD (n = 3)): 11 ± 3 µM; Inhibition of OAT2 (OAT2 [10]; 100 μmol/L): > 50%; IC50 (OAT2 [10]; read-out: IC50, OAT2 [prostaglandin F2α], mean ± SD (n = 3)): 51 ± 5 µM; mRNA-T/U ratio, CYP2B6 (CYP2B6): 4.0 to 9.6; fu-p (unbound fraction in plasma) [1]: 3%; Cmax ([1]; human): 500 nM; VSS ([1]; human): 0.10 L/kg; t1/2 ([1]; human): 2.3 h; Major elimination route ([1]; human): Hepatic glucuronidation; Related metabolism and transport data (substrate status) [2]: Poor UGT substrate; mRNA-T/U ratio, CYP3A4 (CYP3A4): 4.0 to 9.6; pKa [3]: 10.7; LogD(7.4) [3]: 1.5; Membrane permeability [4]: Good
teicoplanin [A26] | – | – | 0.60 | – | – | – | – | – | – | – | IC50 (OAT2 [11]; read-out: IC50, OAT2 [X8], mean ± SD (n = 3)): 64 ± 14 µM; IC50 (OATP1B3 [6]; read-out: IC50, OATP1B3 [X10], mean ± SD (n = 3)): 8 ± 2 µM; Inhibition of OATP1B3 (OATP1B3 [6]; test concentration 100 μmol/L): > 90%
Cc1onc(-c2c(F)cccc2Cl)c1C(=O)N[C@@H]1C(=O)N2[C@@H]1SC(C)(C)[C@@H]2C(=O)O [A19, flucloxacillin] | 336 ± 83 µM | 26 ± 9 µM | 1.07 | 173 ± 27 µM | 60 to 88% | 45 ± 6 µM | 56 to 88% | > 90% | 0.16 | ≥ 90% | IC50 (OAT2 [11]): 729 ± 131 µM; inhibition at 1000 µM (OAT2 [11]): 60 to 84%
C[C@@H](c1ncncc1F)[C@](O)(Cn1cncn1)c1ccc(F)cc1F [A45, voriconazole] | 55 ± 6 µM | 19 ± 8 µM | 2.16 | 189 ± 75 µM | ≥ 90% | – | – | 64 to 88% | 0.22 | 63 to 88% | Inhibition DDI index, UGT2B15 (UGT2B15): 0.75
Cc1onc(-c2ccccc2)c1C(=O)N[C@@H]1C(=O)N2[C@@H]1SC(C)(C)[C@@H]2C(=O)O [A17, oxacillin] | – | 11 ± 2 µM | 4.64 | 99 ± 31 µM | – | 465 ± 72 µM | 56 to 88% | > 90% | 0.52 | 63 to 88% | IC50 (OAT2 [11]): 467 ± 97 µM; inhibition at 1000 µM (OAT2 [11]): 60 to 84%; Inhibition DDI index, OAT2 (OAT2 [11]; antibiotic as perpetrator, tanshinol (X8) as victim, (Cmax × fu-p × R)/IC50): 0.11
